In general, pIC50 refers to the IC50 on a negative log10 scale, so that one unit is a factor of ten. Read a low pIC50 as a large IC50.

The target of the assay is T1, PLK4 (Homo sapiens, UniProt O00444).
T1 construct: expressed in transfected cells; host or cells: HEK293 T cells (ATCC CRL-3216)
T1 sequence (O00444 1-970): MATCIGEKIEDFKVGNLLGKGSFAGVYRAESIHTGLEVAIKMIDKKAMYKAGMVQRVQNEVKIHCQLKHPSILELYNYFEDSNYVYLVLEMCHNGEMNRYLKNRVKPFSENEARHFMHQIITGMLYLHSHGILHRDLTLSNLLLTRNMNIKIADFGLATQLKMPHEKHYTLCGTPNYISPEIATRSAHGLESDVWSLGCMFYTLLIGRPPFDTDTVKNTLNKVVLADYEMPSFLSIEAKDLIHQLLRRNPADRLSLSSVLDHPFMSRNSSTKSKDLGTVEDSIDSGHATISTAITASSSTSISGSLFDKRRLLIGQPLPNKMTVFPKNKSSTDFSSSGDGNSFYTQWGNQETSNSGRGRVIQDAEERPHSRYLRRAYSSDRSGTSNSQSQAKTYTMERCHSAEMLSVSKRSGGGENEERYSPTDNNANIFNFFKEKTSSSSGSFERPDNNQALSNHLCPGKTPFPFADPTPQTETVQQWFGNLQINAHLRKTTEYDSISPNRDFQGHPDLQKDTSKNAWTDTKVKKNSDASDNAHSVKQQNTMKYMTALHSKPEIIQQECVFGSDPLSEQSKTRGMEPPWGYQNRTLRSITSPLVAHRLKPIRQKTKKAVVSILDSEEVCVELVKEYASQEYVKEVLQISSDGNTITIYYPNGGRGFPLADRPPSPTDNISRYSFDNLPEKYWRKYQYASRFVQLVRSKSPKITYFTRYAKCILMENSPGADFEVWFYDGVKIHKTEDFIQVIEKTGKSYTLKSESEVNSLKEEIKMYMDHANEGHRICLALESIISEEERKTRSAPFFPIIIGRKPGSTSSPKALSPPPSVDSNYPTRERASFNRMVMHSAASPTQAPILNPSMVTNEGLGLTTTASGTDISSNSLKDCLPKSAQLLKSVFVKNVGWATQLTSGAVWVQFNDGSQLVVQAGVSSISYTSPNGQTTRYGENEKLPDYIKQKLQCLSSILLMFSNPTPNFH
The experiment in a line: PLK4 NanoBRET target engagement assay. To be noted: HEK293 T cells transfected with PLK4 NanoLuc fusion vector; K-5 tracer; 2 hrs incubation. The class given is binding. An outline of the steps:
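HEK293T cells transiently expressing PLK4-NanoLuc, plated at 17000 cells/well with K-5 tracer and compound, incubated 2 h at 37 °C/5% CO2. After substrate/inhibitor mix, 610/450 nm emission ratio ×1000 gave mBRET; IC50 from 4-parameter fit.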
A general note: Bioluminescence resonance energy transfer reports proximity on the nanometre scale.

pIC50: −log10 of the molar value.

Compound `Cc1cc(Nc2nc(N(C)c3c(F)cc(S(C)(=O)=O)cc3F)nc(-c3cn(CC(C)(C)O)nc3C)c2C2CC2)n[nH]1` [Compound 330] gave a negative logarithm of the IC50 (pIC50) of 8.05.

The compound `CN(c1nc(Nc2cc(C3CC3)[nH]n2)c(C2CC2)c(-c2ccnn2C2CC2)n1)c1c(F)cc(S(C)(=O)=O)cc1F` [Compound 331] had a pIC50 of 7.85.

The compound `Cc1cc(Nc2nc(N(C)c3c(F)cc(S(C)(=O)=O)cc3F)nc(N3CCC[C@@H]3C#N)c2C2CC2)n[nH]1` [Compound 332] gave a pIC50 of 7.48.

The compound `Cc1cc(Nc2nc(N(C)c3c(F)cc(S(C)(=O)=O)cc3F)nc(-c3cnn(C)c3C(=O)N(C)C3CC3)c2C2CC2)n[nH]1` [Compound 333] had a negative logarithm of the IC50 (pIC50) of 7.96.

Regarding `Cc1cc(Nc2nc(N(C)c3c(F)cc(S(C)(=O)=O)cc3F)nc(Nc3cnn(C)c3)c2C2CC2)n[nH]1` [Compound 334], the negative logarithm of the IC50 (pIC50) was 7.43.

Consider `Cc1cc(Nc2nc(N(C)c3c(F)cc(Br)cc3F)nc(-c3cn(C)cn3)c2C2CC2)n[nH]1` [Compound 335], for which the pIC50 is 7.37.

`Cc1cc(Nc2nc(N(C)c3c(F)cc(S(C)(=O)=O)cc3F)nc(-c3cnn(CC(C)(C)O)c3C)c2C2CC2)n[nH]1` [Compound 336] had a pIC50 of 8.10.

For the compound `Cc1cc(Nc2nc(N(C)c3c(F)cc(Cl)cc3F)nc(-c3cn(C)cn3)c2C2CC2)n[nH]1` [Compound 337], the pIC50 is 7.21.

In turn, `COc1cc(F)c(N(C)c2nc(Nc3cc(C)[nH]n3)c(C3CC3)c(-c3cn(C)cn3)n2)c(F)c1` [Compound 338] gave a pIC50 of 7.11.

Consider `Cc1cc(Nc2nc(N(C)c3c(F)cc(C#N)cc3F)nc(-c3cn(C)cn3)c2C2CC2)n[nH]1` [Compound 339], for which the pIC50 was 7.62.

For the compound `Cc1cc(Nc2nc(N(C)c3c(F)cc(S(C)(=O)=O)cc3F)nc(-c3cc(CC#N)n(C)n3)c2C2CC2)n[nH]1` [Compound 340], the pIC50 was 8.40.

Consider `COCc1cc(Nc2nc(N(C)c3c(F)cc(S(C)(=O)=O)cc3F)nc(-c3cnn(C)c3)c2C2CC2)n[nH]1` [Compound 341], for which the pIC50 was 6.38.

In turn, `Cc1cc(Nc2nc(N(C)c3c(F)cc(S(C)(=O)=O)cc3F)nc(-c3cnn(C)c3N3CCOC3=O)c2C2CC2)n[nH]1` [Compound 342] gave a negative logarithm of the IC50 (pIC50) of 8.40.

For the compound `Cc1cc(Nc2nc(N(C)c3c(F)cc(C4CC4)cc3F)nc(-c3cn(C)cn3)c2C2CC2)n[nH]1` [Compound 343], the pIC50 is 7.59.

On to `Cc1cc(Nc2nc(N(C)c3ccc(S(C)(=O)=O)cc3F)nc(-c3cnn(C)c3)c2OC2CC2)n[nH]1` [Compound 344, 5-cyclopropoxy-N^2-(2-fluoro-4-(methylsulfonyl)phenyl)-N^2-methyl-N^4-(5-methyl-1H-pyrazol-3-yl)-6-(1-methyl-1H-pyrazol-4-yl)pyrimidine-2,4-diamine], for which the pIC50 was 7.14.

As for `CC#Cc1cc(Nc2nc(N(C)c3c(F)cc(S(C)(=O)=O)cc3F)nc(-c3cnn(C)c3)c2C2CC2)n[nH]1` [Compound 345], the pIC50 was 7.48.

On to `Cc1cc(Nc2nc(N(C)c3c(F)cc(S(C)(=O)=O)cc3F)nc(N3CCC[C@@H]3C(N)=O)c2C2CC2)n[nH]1` [Compound 346], for which the negative logarithm of the IC50 (pIC50) was 7.92.

`Cc1cc(Nc2nc(N(C)c3c(F)cc(S(=O)(=O)C4CC4)cc3F)nc(-c3cn(C)cn3)c2C2CC2)n[nH]1` [Compound 347] had a pIC50 of 8.30.

Take `Cc1cc(Nc2nc(N(C)c3c(F)cc(-c4ccc(=O)n(C)c4)cc3F)nc(-c3cn(C)cn3)c2C2CC2)n[nH]1` [Compound 348]: the pIC50 was 7.34.

As for `CC(=O)N1CCC(c2cc(F)c(N(C)c3nc(Nc4cc(C)[nH]n4)c(C4CC4)c(-c4cn(C)cn4)n3)c(F)c2)CC1` [Compound 349], the negative logarithm of the IC50 (pIC50) is 7.34.

`Cc1cc(Nc2nc(N(C)c3c(F)cc(C4CCOCC4)cc3F)nc(-c3cn(C)cn3)c2C2CC2)n[nH]1` [Compound 350] had a pIC50 of 7.51.

With `Cc1cc(Nc2nc(N(C)c3c(F)cc(B(O)O)cc3F)nc(-c3cn(C)cn3)c2C2CC2)n[nH]1` [Compound 351], the pIC50 is 7.28.

On to `Cc1cc(Nc2nc(N(C)c3c(F)cc(S(C)(=O)=O)cc3F)nc(-c3cn[nH]c3C(C)C)c2C2CC2)n[nH]1` [Compound 352], for which the pIC50 is 8.52.

The compound `Cc1cc(Nc2nc(N(C)c3c(F)cc(N4CCOC4=O)cc3F)nc(-c3cn(C)cn3)c2C2CC2)n[nH]1` [Compound 353] showed a negative logarithm of the IC50 (pIC50) of 8.22.

`Cc1cc(Nc2nc(N(C)c3c(F)cc(C(N)=O)cc3F)nc(-c3cn(C)cn3)c2C2CC2)n[nH]1` [Compound 354] gave a pIC50 of 7.77.

Compound `Cc1cc(Nc2nc(N(C)c3c(F)cc(C(=O)N(C)C)cc3F)nc(-c3cn(C)cn3)c2C2CC2)n[nH]1` [Compound 355] gave a pIC50 of 6.72.

`Cc1cc(Nc2nc(N(C)c3c(F)cc(C(=O)N4CCOCC4)cc3F)nc(-c3cn(C)cn3)c2C2CC2)n[nH]1` [Compound 356] showed a pIC50 of 6.59.

With `Cc1cc(Nc2nc(N(C)c3c(F)cc(N4CCS(=O)(=O)CC4)cc3F)nc(-c3cn(C)cn3)c2C2CC2)n[nH]1` [Compound 357], the pIC50 was 6.52.

`Cc1cc(Nc2nc(N(C)c3c(F)cc(C4(C(N)=O)CC4)cc3F)nc(-c3cn(C)cn3)c2C2CC2)n[nH]1` [Compound 358] showed a negative logarithm of the IC50 (pIC50) of 7.57.

`Cc1cc(Nc2nc(N(C)c3c(F)cc(C(=O)N4CCC4)cc3F)nc(-c3cn(C)cn3)c2C2CC2)n[nH]1` [Compound 359] gave a pIC50 of 7.19.

Consider `Cc1cc(Nc2nc(N(C)c3c(F)cc([N+](=O)[O-])cc3F)nc(-c3cn(C)cn3)c2C2CC2)n[nH]1` [Compound 360], for which the pIC50 is 8.00.

As to `Cc1cc(Nc2nc(N(C)c3c(F)cc(CC(=O)N(C)C)cc3F)nc(-c3cn(C)cn3)c2C2CC2)n[nH]1` [Compound 361], the negative logarithm of the IC50 (pIC50) was under 5.30.

`Cc1cc(Nc2nc(N(C)c3c(F)cc(C4(C#N)CC4)cc3F)nc(-c3cn(C)cn3)c2C2CC2)n[nH]1` [Compound 362] had a negative logarithm of the IC50 (pIC50) of 8.40.

In turn, `Cc1cc(Nc2nc(N(C)c3c(F)cc(CC(=O)N4CCC4)cc3F)nc(-c3cn(C)cn3)c2C2CC2)n[nH]1` [Compound 363] gave a pIC50 of under 5.30.

In turn, `Cc1cc(Nc2nc(N(C)c3c(F)cc(CC(=O)N4CCOCC4)cc3F)nc(-c3cn(C)cn3)c2C2CC2)n[nH]1` [Compound 364] gave a pIC50 of under 5.30.

In turn, `Cc1cc(Nc2nc(N(C)c3c(F)cc(S(C)(=O)=O)cc3F)nc(-c3cn(C4CC(O)C4)nc3C)c2C2CC2)n[nH]1` (stereo not drawn) [Compound 365] gave a negative logarithm of the IC50 (pIC50) of 8.40.

These data come from patent publication US20250177396A1, “POLO-LIKE KINASE 4 (PLK4) INHIBITORS, PHARMACEUTICAL COMPOSITIONS, METHODS OF PREPARATION AND USES THEREOF” (Repare Therapeutics Inc., priority 2022, published 2025).
